Among the data in patent publication US10934274B2, “Quinoline derivatives as TAM RTK inhibitors” (Qurient Co., Ltd., priority 2015, dated 2021) are Kd values, retold here.

One test addresses T1, Axl (Homo sapiens, UniProt P30530).
T1 construct: purchased Life Technologies
T1 sequence (P30530 26-894): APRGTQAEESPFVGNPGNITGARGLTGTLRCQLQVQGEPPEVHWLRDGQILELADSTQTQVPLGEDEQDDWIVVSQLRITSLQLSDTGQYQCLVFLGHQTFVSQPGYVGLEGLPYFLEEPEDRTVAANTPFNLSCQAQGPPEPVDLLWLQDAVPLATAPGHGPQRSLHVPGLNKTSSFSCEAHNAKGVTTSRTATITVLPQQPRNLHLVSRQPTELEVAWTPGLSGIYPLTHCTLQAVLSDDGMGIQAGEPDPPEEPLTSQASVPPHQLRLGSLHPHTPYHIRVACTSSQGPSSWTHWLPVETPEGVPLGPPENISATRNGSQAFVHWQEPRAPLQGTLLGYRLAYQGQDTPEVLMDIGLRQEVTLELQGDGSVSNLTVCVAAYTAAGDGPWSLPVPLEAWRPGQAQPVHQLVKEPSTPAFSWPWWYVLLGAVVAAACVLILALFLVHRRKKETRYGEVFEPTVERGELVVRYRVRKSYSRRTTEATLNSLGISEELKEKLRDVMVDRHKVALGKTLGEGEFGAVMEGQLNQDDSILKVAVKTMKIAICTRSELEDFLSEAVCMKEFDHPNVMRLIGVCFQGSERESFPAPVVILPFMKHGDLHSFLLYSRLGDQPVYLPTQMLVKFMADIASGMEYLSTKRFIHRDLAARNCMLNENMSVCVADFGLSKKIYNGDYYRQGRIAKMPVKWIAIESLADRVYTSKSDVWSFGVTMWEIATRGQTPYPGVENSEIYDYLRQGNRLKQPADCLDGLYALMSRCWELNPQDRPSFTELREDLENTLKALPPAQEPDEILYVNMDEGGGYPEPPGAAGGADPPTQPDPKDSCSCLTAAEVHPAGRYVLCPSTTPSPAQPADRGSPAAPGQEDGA
The experiment in a line: LanthaScreen Eu kinase binding assay, Axl. Conditions: Tracer 236.

The target in the next test is T2, Mer (Homo sapiens, UniProt Q12866).
T2 construct: purchased Life Technologies
T2 sequence (Q12866 21-999): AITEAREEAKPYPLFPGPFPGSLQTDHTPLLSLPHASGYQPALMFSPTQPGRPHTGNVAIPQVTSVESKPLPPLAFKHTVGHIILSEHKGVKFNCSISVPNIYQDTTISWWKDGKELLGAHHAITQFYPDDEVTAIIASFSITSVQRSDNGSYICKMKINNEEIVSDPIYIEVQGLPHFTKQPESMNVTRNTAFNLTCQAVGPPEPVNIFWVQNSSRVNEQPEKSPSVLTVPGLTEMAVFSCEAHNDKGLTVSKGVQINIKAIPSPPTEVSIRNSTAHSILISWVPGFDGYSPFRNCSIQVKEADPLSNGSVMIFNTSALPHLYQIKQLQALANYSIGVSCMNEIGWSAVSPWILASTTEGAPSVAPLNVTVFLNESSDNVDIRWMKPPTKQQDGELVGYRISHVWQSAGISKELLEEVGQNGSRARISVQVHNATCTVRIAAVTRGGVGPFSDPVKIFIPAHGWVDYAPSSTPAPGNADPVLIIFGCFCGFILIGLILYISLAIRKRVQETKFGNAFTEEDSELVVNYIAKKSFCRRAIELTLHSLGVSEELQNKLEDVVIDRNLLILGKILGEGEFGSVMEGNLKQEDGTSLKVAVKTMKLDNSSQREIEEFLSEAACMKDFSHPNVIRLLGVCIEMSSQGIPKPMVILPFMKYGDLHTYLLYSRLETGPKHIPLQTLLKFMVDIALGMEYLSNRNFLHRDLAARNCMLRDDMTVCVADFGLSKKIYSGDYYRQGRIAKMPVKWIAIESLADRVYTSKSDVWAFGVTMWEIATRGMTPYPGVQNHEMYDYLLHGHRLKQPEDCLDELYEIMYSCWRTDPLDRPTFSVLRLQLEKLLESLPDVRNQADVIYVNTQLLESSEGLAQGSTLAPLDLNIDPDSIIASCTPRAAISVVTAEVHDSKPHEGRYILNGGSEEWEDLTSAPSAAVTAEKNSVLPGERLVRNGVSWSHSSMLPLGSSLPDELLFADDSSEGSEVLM
In words: LanthaScreen Eu kinase binding assay, Mer. The note with it: Tracer 236.

The target in another test is T3, TYRO3 (Homo sapiens, UniProt Q06418).
T3 construct: purchased Life Technologies
T3 sequence (Q06418 41-890): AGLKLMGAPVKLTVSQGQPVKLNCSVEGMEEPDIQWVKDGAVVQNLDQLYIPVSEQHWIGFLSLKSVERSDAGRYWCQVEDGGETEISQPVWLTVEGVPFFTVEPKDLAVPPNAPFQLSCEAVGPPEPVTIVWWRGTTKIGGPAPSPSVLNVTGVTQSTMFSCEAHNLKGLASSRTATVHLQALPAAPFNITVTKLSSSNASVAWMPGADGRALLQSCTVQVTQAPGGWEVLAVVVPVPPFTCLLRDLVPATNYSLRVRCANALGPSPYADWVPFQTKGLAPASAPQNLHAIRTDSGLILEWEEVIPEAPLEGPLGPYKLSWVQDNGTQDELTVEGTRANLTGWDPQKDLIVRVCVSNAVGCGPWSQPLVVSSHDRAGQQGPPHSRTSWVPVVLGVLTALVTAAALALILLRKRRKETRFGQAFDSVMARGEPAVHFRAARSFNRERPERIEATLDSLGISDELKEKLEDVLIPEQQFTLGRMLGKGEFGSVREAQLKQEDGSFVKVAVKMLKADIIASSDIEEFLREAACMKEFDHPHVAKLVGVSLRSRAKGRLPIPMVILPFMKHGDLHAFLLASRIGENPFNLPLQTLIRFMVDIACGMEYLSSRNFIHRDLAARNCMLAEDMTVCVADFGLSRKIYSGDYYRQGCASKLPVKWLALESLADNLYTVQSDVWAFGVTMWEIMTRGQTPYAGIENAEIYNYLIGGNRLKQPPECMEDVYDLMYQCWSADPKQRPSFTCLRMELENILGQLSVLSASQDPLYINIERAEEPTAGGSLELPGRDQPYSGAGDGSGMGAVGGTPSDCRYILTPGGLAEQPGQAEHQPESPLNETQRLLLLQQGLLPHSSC
The experiment in a line: LanthaScreen Eu kinase binding assay, TYRO3. The note with it: Tracer 236.

A further test addresses T4, Met (Homo sapiens, UniProt P08581).
T4 construct: purchased Life Technologies
The experiment in a line: LanthaScreen Eu kinase binding assay, Met. The note with it: Tracer 236, read-out: cMet kinase binding activity (Kd).

Bounds are passed on as bounds.

T4 sequence (P08581 25-1390): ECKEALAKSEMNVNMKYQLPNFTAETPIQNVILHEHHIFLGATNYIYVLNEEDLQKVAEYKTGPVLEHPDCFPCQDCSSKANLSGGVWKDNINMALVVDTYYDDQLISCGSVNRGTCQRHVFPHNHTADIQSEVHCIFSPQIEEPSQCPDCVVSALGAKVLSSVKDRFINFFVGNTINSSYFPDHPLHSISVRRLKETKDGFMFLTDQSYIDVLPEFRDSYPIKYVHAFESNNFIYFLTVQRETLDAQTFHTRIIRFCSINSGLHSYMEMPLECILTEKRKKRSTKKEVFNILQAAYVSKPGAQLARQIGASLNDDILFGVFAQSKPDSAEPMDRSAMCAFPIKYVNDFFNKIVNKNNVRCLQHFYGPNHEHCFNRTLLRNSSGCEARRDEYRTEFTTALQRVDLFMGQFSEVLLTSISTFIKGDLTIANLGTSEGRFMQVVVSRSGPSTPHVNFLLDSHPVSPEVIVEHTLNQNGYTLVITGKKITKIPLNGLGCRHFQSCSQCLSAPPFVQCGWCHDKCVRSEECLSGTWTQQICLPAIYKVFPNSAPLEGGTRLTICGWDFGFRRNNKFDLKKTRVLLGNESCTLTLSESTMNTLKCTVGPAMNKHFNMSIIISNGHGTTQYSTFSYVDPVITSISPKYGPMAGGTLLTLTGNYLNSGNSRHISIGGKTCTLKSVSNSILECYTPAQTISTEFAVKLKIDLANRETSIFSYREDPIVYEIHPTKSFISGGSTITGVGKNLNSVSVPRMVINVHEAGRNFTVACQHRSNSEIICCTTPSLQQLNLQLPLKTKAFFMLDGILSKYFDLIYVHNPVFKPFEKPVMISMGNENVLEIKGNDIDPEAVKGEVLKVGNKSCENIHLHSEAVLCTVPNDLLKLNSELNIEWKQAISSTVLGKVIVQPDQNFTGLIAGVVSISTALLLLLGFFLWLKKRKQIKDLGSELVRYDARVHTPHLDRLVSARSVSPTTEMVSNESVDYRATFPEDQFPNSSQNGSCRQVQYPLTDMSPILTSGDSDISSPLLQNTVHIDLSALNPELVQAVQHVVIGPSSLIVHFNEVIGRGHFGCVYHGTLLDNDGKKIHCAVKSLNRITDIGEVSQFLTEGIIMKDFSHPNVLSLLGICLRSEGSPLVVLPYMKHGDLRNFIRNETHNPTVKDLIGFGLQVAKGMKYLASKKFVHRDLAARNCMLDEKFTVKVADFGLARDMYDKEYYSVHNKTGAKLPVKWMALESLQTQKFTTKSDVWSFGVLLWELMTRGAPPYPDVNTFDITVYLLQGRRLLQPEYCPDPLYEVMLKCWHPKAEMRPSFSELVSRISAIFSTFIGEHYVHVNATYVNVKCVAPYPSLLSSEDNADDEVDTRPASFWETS

Regarding `CCOc1cn(-c2cnc(N)nc2C)nc1C(=O)Nc1ccc(Oc2ccnc3cc(OC)c(OC)cc23)cn1` [Compound 150], the Kd at Axl, on Mer, on TYRO3 and on Met was < 100 nM each time.
Turning to `CCOc1cn(CC2CCCN(C)C2)nc1C(=O)Nc1ccc(Oc2ccnc3cc(OC)c(OC)cc23)cc1F` (stereo not shown) [Compound 214], the Kd at Axl, at Mer, at TYRO3 and on Met was 100 to 1000 nM throughout.
For `CCOc1cn(-c2cncc(C)n2)nc1C(=O)Nc1ccc(Oc2ccnc3cc(OC)c(OC)cc23)cn1` [Compound 157], the dissociation constant (Kd) at Axl is < 100 nM; at Mer it was < 100 nM; at TYRO3, ≥ 1000 nM; on Met, < 100 nM.
In the case of `CCOc1cn(-c2ccc(NC(C)C)cc2Cl)nc1C(=O)Nc1ccc(Oc2ccnc3cc(OC)c(OC)cc23)cn1` [Compound 24], the Kd on Axl was 100 to 1000 nM; at Mer it was < 100 nM; on TYRO3, ≥ 1000 nM; on Met, 100 to 1000 nM.
On to `CCOc1cn(-c2c(CN(C)C)ccnc2C)nc1C(=O)Nc1ccc(Oc2ccnc3cc(OC)c(OC)cc23)cn1` [Compound 131], for which the Kd on Axl was 100 to 1000 nM; on Mer, 100 to 1000 nM; at TYRO3, ≥ 1000 nM; at Met, 100 to 1000 nM.
In the case of `CCOc1cnn(Cc2cnccc2C)c1C(=O)Nc1ccc(Oc2ccnc3cc(OC)c(OC)cc23)cc1F` [Compound 228], the Kd is ≥ 1000 nM on Axl, 100 to 1000 nM at Mer, ≥ 1000 nM at TYRO3 and 100 to 1000 nM at Met.
Regarding `CCOc1cn(-c2ncc(Cl)cc2CN(C)C)nc1C(=O)Nc1ccc(Oc2ccnc3cc(OC)c(OC)cc23)cn1` [Compound 138], the Kd was 100 to 1000 nM at Axl, < 100 nM at Mer, 100 to 1000 nM on TYRO3 and < 100 nM on Met.
`CCOc1cn(-c2cncc(C#N)n2)nc1C(=O)Nc1ccc(Oc2ccnc3cc(OC)c(OC)cc23)cn1` [Compound 158]: the Kd at Axl was 100 to 1000 nM; at Mer, ≥ 1000 nM; on TYRO3, ≥ 1000 nM; at Met, ≥ 1000 nM.
With `COc1cc2nccc(Oc3ccc(NC(=O)c4nn(-c5ccc(F)cc5-c5ccccc5)cc4OCC4CC4)nc3)c2cc1OC` [Compound 275], the Kd at Axl, at Mer, at TYRO3 and on Met was 100 to 1000 nM each time.
Take `CCOc1cnn(-c2cncn2C)c1C(=O)Nc1ccc(Oc2ccnc3cc(OC)c(OC)cc23)cn1` [Compound 15]: the Kd on Axl was ≥ 1000 nM; at Mer, 100 to 1000 nM; at TYRO3, ≥ 1000 nM; at Met it was 100 to 1000 nM.
For `CCOc1cn(-c2cnccc2C)nc1C(=O)NC1CC2(C1)CC(Oc1ccnc3cc(OC)c(OC)cc13)C2` (stereo not shown) [Compound 221], the Kd at Axl, at Mer, on TYRO3 and at Met was ≥ 1000 nM throughout.
For `CCOc1cn(-c2ncc(F)cc2C#N)nc1C(=O)Nc1ccc(Oc2ccnc3cc(OC)c(OC)cc23)cn1` [Compound 155], the Kd on Axl was < 100 nM; on Mer, < 100 nM; at TYRO3, 100 to 1000 nM; on Met, < 100 nM.
As for `CCOc1cnn(C2CCN(C)C2)c1C(=O)Nc1ccc(Oc2ccnc3cc(OC)c(OC)cc23)cn1` (stereo not shown) [Compound 75], the Kd was 100 to 1000 nM on Axl, 100 to 1000 nM at Mer, ≥ 1000 nM at TYRO3 and 100 to 1000 nM on Met.
Regarding `CCOc1cn(C2CCN(C)C2)nc1C(=O)Nc1ccc(Oc2ccnc3cc(OC)c(OC)cc23)cn1` (stereo not shown) [Compound 74], the Kd at Axl is 100 to 1000 nM; at Mer, < 100 nM; on TYRO3 it was 100 to 1000 nM; on Met, 100 to 1000 nM.
With `CCOc1cnn(-c2ccc(Cl)cc2C(F)(F)F)c1C(=O)Nc1ccc(Oc2ccnc3cc(OC)c(OC)cc23)cn1` [Compound 103], the Kd on Axl, at Mer, on TYRO3 and at Met was 100 to 1000 nM throughout.
With `CCOc1cnn(Cc2cccnc2)c1C(=O)Nc1ccc(Oc2ccnc3cc(OC)c(OC)cc23)cn1` [Compound 84], the Kd was 100 to 1000 nM at Axl, < 100 nM at Mer, ≥ 1000 nM on TYRO3 and < 100 nM on Met.
For `CCOc1cn(-c2ccc(C(C)(C)C)cc2)nc1C(=O)Nc1ccc(Oc2ccnc3cc(OC)c(OC)cc23)cn1` [Compound 121], the equilibrium dissociation constant (Kd) on Axl was 100 to 1000 nM; at Mer it was < 100 nM; on TYRO3 it was ≥ 1000 nM; at Met it was 100 to 1000 nM.
Turning to `CCOc1cnn(CC2CCN(C)CC2)c1C(=O)Nc1ccc(Oc2ccnc3cc(OC)c(OC)cc23)cc1F` [Compound 220], the Kd at Axl, at Mer, on TYRO3 and on Met was ≥ 1000 nM in each case.
With `CCOc1cn(-c2ccc(F)cc2C)nc1C(=O)Nc1ccc(Oc2ccnc3cc(OC)c(OC)cc23)c(NC(C)C)c1` [Compound 91], the Kd on Axl is 100 to 1000 nM; on Mer it was 100 to 1000 nM; at TYRO3, 100 to 1000 nM; at Met it was ≥ 1000 nM.
Regarding `CCOc1nn(-c2cccnc2)cc1C(=O)Nc1ccc(Oc2ccnc3cc(OC)c(OC)cc23)cn1` [Compound 46], the Kd on Axl, on Mer, at TYRO3 and on Met was ≥ 1000 nM each time.
Consider `CCOc1cnn(CCOC(F)F)c1C(=O)Nc1ccc(Oc2ccnc3cc(OC)c(OC)cc23)cn1` [Compound 78], for which the Kd was ≥ 1000 nM on Axl, 100 to 1000 nM on Mer, ≥ 1000 nM on TYRO3 and 100 to 1000 nM at Met.
Regarding `CCOc1cn(-c2cccnc2)nc1C(=O)Nc1ncc(Oc2ccnc3cc(OC)c(OC)cc23)cn1` [Compound 47], the Kd at Axl is 100 to 1000 nM; on Mer, 100 to 1000 nM; on TYRO3, ≥ 1000 nM; on Met, ≥ 1000 nM.
